Results as given in patent US8802678B2, “Carbonylated (aza) cyclohexanes as dopamine D3 receptor ligands” (Bioprojet, priority 2006, dated 2014).

Structure (SMILES) | melting point [°C]
O=C(N[C@H]1CC[C@H](CCN2CCN(c3ccc(F)cc3F)CC2)CC1)C1=CCCCO1 [Example 565, 5,6-Dihydro-4H-pyran-2-carboxylic acid (4-{2-[4-(2,4-difluorophenyl)piperazin-1-yl]ethyl}cyclohexyl) amide] | 160
CCC(O)c1cccc(N2CCN(CC[C@H]3CC[C@H](NC(=O)CC#N)CC3)CC2)c1 (stereo partly shown) [Example 566, 2-cyano-N-[4-(2-{4-[3-(1-hydroxypropyl)phenyl]piperazin-1-yl}ethyl)cyclohexyl]acetamide] | 157
COCCCC(=O)N[C@H]1CC[C@H](CCN2CCN(c3cc(F)c(F)c(F)c3)CC2)CC1 [Example 568, 4-Methoxy-N-(4-{2-[4-(3,4,5-trifluorophenyl)piperazin-1-yl]ethyl}cyclohexyl)butanamide] | 194
COc1ccc(N2CCN(CC[C@H]3CC[C@H](NC(=O)C4=CCCC4)CC3)CC2)cc1 [Example 571, Cyclopent-1-enecarboxylic acid (4-{2-[4-(4-methoxyphenyl)-piperazin-1-yl]ethyl}cyclohexyl) amide] | 205
CCOCC(=O)N[C@H]1CC[C@H](CCN2CCN(c3ccc(OC)cc3)CC2)CC1 [Example 572, 2-Ethoxy-N-(4-{2-[4-(4-methoxyphenyl)piperazin-1-yl]ethyl}cyclohexyl)acetamide] | 132
COc1ccc(N2CCN(CC[C@H]3CC[C@H](NC(=O)CC#N)CC3)CC2)cc1 [Example 573, 2-Cyano-N-(4-{2-[4-(4-methoxyphenyl)piperazin-1-yl]ethyl}cyclohexyl)acetamide] | 227
N#CCC(=O)N[C@H]1CC[C@H](CCN2CCN(c3cc(F)c(C(F)(F)F)c(F)c3)CC2)CC1 [Example 574, 2-Cyano-N-(4-{2-[4-(3,5-difluoro-4-trifluoromethylphenyl)piperazin-1-yl]ethyl}cyclohexyl) acetamide] | 231
CC(C)C(O)c1cccc(N2CCN(CC[C@H]3CC[C@H](NC(=O)CC#N)CC3)CC2)c1 (stereo partly shown) [Example 575, 2-cyano-N-[4-(2-{4-[3-(1-hydroxy-2-methylpropyl)phenyl]piperazin-1-yl}ethyl)cyclohexyl]acetamide] | 119
CC(=O)CN1CCC(CCN2CCN(c3ccc4c(c3)CCCC4)CC2)CC1 [Example 576] | 75
CCOCC(=O)N[C@H]1CC[C@H](CCN2CCN(c3cc(C)cc(Cl)c3)CC2)CC1 [Example 577, N-(4-{2-[4-(3-Chloro-5-methylphenyl)piperazin-1-yl]ethyl}cyclohexyl)-2-ethoxyacetamide] | 100
COCCCC(=O)N[C@H]1CC[C@H](CCN2CCN(c3cc(C)cc(Cl)c3)CC2)CC1 [Example 578, N-(4-{2-[4-(3-Chloro-5-methylphenyl)piperazin-1-yl]ethyl}cyclohexyl)-4-methoxybutanamide] | 167
CCOCC(=O)N[C@H]1CC[C@H](CCN2CCN(c3cc(C)c(F)cc3Cl)CC2)CC1 [Example 579, N-(4-{2-[4-(2-Chloro-4-fluoro-5-methylphenyl)piperazin-1-yl]ethyl}cyclohexyl)-2-ethoxyacetamide] | 132
COCCCC(=O)N[C@H]1CC[C@H](CCN2CCN(c3cc(C)c(F)cc3Cl)CC2)CC1 [Example 580, N-(4-{2-[4-(2-Chloro-4-fluoro-5-methylphenyl)piperazin-1-yl]ethyl}cyclohexyl)-4-methoxybutanamide] | 171
CC(=O)CN1CCC(CCN2CCN(c3cc(F)cc(Cl)c3)CC2)CC1 [Example 581, 1-(4-{2-[4-(3-Chloro-5-fluorophenyl)piperazin-1-yl]ethyl}piperidin-1-yl)propan-2-one] | 107
COc1ccc(N2CCN(CC[C@H]3CC[C@H](NC(=O)CCCC#N)CC3)CC2)cc1 [Example 582, 4-Cyano-N-(4-{2-[4-(4-methoxyphenyl)piperazin-1-yl]ethyl}cyclohexyl)butanamide] | 200
CC(=O)CN1CCC(CCN2CCN(c3ccc4c(c3)OCO4)CC2)CC1 [Example 584, 1-{4-[2-(4-Benzo[1,3]dioxol-5-ylpiperazin-1-yl)ethyl]piperidin-1-yl}propan-2-one] | 113
N#CCC(=O)N[C@H]1CC[C@@H](CCN2CCN(c3cc(C(F)(F)F)ccc3F)CC2)CC1 [Example 586, 2-Cyano-N-(4-{2-[4-(2-fluoro-5-trifluoromethylphenyl)piperazin-1-yl]ethyl}cyclohexyl)acetamide] | 152
CC(=O)CN1CCC(CCN2CCN(c3ccc(C(F)(F)F)cc3)CC2)CC1 [Example 587, 1-(4-{2-[4-(4-Trifluoromethylphenyl)piperazin-1-yl]ethyl}pipericin-1-yl)propan-2-one] | 104
CC(=O)CN1CCC(CCN2CCN(c3ccc(F)c(Cl)c3)CC2)CC1 [Example 592, 1-(4-{2-[4-(3-Chloro-4-fluorophenyl)piperazin-1-yl]ethyl}piperidin-1-yl)propan-2-one] | 92
N#CCC(=O)N[C@H]1CC[C@H](CCN2CCN(c3ccc(F)c(Cl)c3)CC2)CC1 [Example 594, N-(4-{2-[4-(3-Chloro-4-fluorophenyl)piperazin-1-yl]ethyl}cyclohexyl)-2-cyanoacetamide] | 176
N#CCCCC(=O)N[C@H]1CC[C@H](CCN2CCN(c3ccc(F)c(Cl)c3)CC2)CC1 [Example 598, N-(4-{2-[4-(3-Chloro-4-fluorophenyl)piperazin-1-yl]ethyl}cyclohexyl)-4-cyanobutanamide] | 142
N#CCC(=O)N[C@H]1CC[C@H](CCN2CCN(c3cc(C#N)ccc3Cl)CC2)CC1 [Example 599, N-(4-{2-[4-(2-Chloro-5-cyanophenyl)piperazin-1-yl]ethyl}cyclohexyl)-2-cyanoacetamide] | 225
N#CCCCC(=O)N[C@H]1CC[C@H](CCN2CCN(c3cc(C#N)ccc3Cl)CC2)CC1 [Example 601, N-(4-{2-[4-(2-Chloro-5-cyanophenyl)piperazin-1-yl]ethyl}cyclohexyl)-4-cyanobutanamide] | 206
NC(=O)CCC(=O)N[C@H]1CC[C@H](CCN2CCN(c3ccc(F)c(Cl)c3F)CC2)CC1 [Example 602, N-(4-{2-[4-(3-Chloro-2,4-difluorophenyl)piperazin-1-yl]ethyl}cyclohexyl)succinamide] | 257
CC(=O)CN1CCC(CCN2CCN(c3cccc(C(C)=O)c3)CC2)CC1 [Example 603, 1-(4-{2-[4-(3-Acetylphenyl)-piperazin-1-yl]ethyl}piperidin-1-yl)propan-2-one] | 85
CCC(=O)c1cccc(N2CCN(CCC3CCN(CC(C)=O)CC3)CC2)c1 [Example 604, 1-[3-(4-{2-[1-(2-Oxopropyl)piperidin-4-yl]ethyl}piperazin-1-yl)phenyl]propan-1-one] | 68
CC(=O)CN1CCC(CCN2CCN(c3cccc(C(C)O)c3)CC2)CC1 (stereo not shown) [Example 606, 1-[4-(2-{4-[3-(1-Hydroxyethyl)phenyl]piperazin-1-yl}ethyl)piperidin-1-yl]propan-2-one] | 97
CCC(O)c1cccc(N2CCN(CCC3CCN(CC(C)=O)CC3)CC2)c1 (stereo not shown) [Example 607, 1-[4-(2-{4-[3-(1-Hydroxypropyl)phenyl]piperazin-1-yl}ethyl)piperidin-1-yl]propan-2-one] | 83
